Results: paper PMC12737022, “Evaluations of Sex Differences in Dosimetry in Rats Following Perfluorohexanesulfonamide (PFHxSA) Oral Exposure” (Toxics, 2025)
Where “and” joins values, the source holds several entries; their conditions need not be identical. Equal entries are not always repeated. Where two headings read alike, the source gives them in different places.

Key:
[1] = Liver dosimetry of PFHxSA and PFHxS by targeted LC/MS/MS; type: in vivo, rat; conditions: for PFHxS Male Liver Conc. (wet weight) / PFHxS Female Liver Conc. (wet weight) / concentration at 24 h: individual rats; for PFHxS Male Liver Conc. (wet weight) / concentration at 24 h: male; for concentration at 24 h: Sprague Dawley (Crl:CD(SD)), liver, oral, read-out: PFHxS Male Liver Conc. (wet weight)
From the text: The plasma and liver samples for this investigation were provided by Mutlu et al.. The study design, including detailed descriptions of animal handling, procedures for dosing, clinical observations, termination, and collection of tissues, is reported elsewhere and is consistent with the ARRIVE guidelines. Briefly, male and female Sprague Dawley (SD) rats (Crl:CD(SD)) (n = 48/sex, 96 total) were purchased from Charles River Laboratory (Raleigh, NC, USA) and allowed to acclimate for ≥5 days before initial dosing. Rats were 8–10 weeks old at the time of exposure. PFHxSA dosing solutions in corn oil were prepared on Day 0 and used over the course of the study. Rats of both sexes (n = 5/sex, dose, and time point, plus eight vehicle controls per sex) were dosed by oral gavage (5 mL/kg body weight) once daily for five days. […] The formulation concentrations decreased from 100 mg/kg/day at half-log10 intervals until the lowest dose level, which was a full log10 interval below the next higher dose, giving eight dose levels (0.01 to 100 mg/kg/day or 0.025 µmol/kg/day to 250 µmol/kg/day) in addition to vehicle controls. Doses were administered in randomized order within ± 1 h on each day of dosing. […] Rats were euthanized 24 h after the last dose. Blood was collected via cardiac puncture with tripotassium ethylene diamine tetraacetic acid (K3EDTA) as an anti-coagulant and centrifuged to collect cell-free plasma. Liver was collected and flash-frozen in liquid nitrogen. Liver, plasma, and dosing formulation samples were frozen at the USEPA Center for Computational Toxicology and Exposure (CCTE), Durham, NC, USA. Tissue samples (plasma and liver, n = 96 each) were stored at ≤−70 °C prior to extraction; dosing formulation samples (n = 9) were stored at −20 °C.
Detailed information on solvents and standards used for targeted LC/MS/MS of PFHxSA and PFHxS can be found in SI Text S1 and SI Table S1. Plasma and liver preparations were modified from Conley et al.. Briefly, aliquots of plasma (25 µL) and liver (~10 mg) were spiked with PFOSA as an internal standard, as no isotope-labeled PFHxSA was available. Sample batches included up to 96 samples along with an MB, CCV, and LCS for QC. Commercial plasma (mixed-sex SD rat plasma) and liver (mixed-sex SD rat) were obtained from BioIVT (Westbury, NY, USA). Cold acetonitrile (ACN) with 0.1 M formic acid was used to precipitate proteins. Liver and plasma samples were prepared similarly, except that the livers were homogenized after solvent addition. Plasma samples were vortexed to mix before being chilled at −20 °C, after which samples were centrifuged at 5 °C and 10,000× g. Liver samples were chilled at −80 °C, then homogenized using an Omni International (Kennesaw, GA, USA) Bead Ruptor 24. Liver homogenates were centrifuged at 26,000× g and 5 °C. Supernatants from the extraction of both matrices were removed and stored at −20 °C until analysis. Refer to SI Text S4 for additional experimental details and information on calibration and QC parameters for quantitation of PFHxSA.
Targeted LC/MS/MS of PFHxSA was performed on a Sciex 4000 QTRAP LC/MS/MS system operated in negative ESI mode with MRM scanning. A Restek (Bellefonte, PA, USA) Raptor Polar X (100 mm × 2 mm, 2.7 µm) column was used for liquid chromatography. Isocratic elution occurred over 10 min with a 30:70 ratio of mobile phase A (10 mM ammonium formate): mobile phase B (60:40 ACN: methanol). Both mobile phases included 0.05% formic acid. The LOQs for PFHxSA were 0.100 µM in plasma and 0.351 µM in liver. Additional details of the instrument method parameters for targeted analysis of PFHxSA are provided in SI Table S5. The MRM transitions for the PFHxSA method are provided in SI Table S6. […]

[2] = In vitro-in vivo extrapolation (IVIVE) to estimate Css, human
Description: (§1) Intrinsic hepatic clearance (Clint) and fraction unbound in plasma (fup) were calculated from the experimental point estimate data as described in Dobreniecki et al.. Steady-state concentrations (Css) were derived based on zero-order uptake of an assumed daily dose from the gut (assuming 100% intestinal bioavailability) but considering hepatic clearance and non-metabolic renal clearance. Renal clearance was calculated using the glomerular filtration rate (a species-dependent constant) and the fraction unbound in blood (fub), estimated by adjusting the experimental fup for blood/plasma partitioning. The Css calculations, along with underlying species-specific physiologic scalars, are detailed in SI Texts S6 and S7. […]
(§2) hepatocytes). In equation (C), the scalar 2000 is used to adjust the assay cell number to be consistent with units of 1 million cells in the Clint equation.
(§3) Text S7 In Vitro-In Vivo Extrapolation (IVIVE) Calculations
(§4) The pharmacokinetic equation used to estimate expected steady-state concentrations (Css) is based on zero-order uptake of a daily dose from the gut (assuming 100% bioavailability) with both nonmetabolic renal clearance (Clrenal) and hepatic clearance (Clhepatic) (Equation D). The chemical input rate (ko) is the product of the intake dosage and the model body weight; this represents the numerator of Equation D. The Clrenal calculation is shown in the first part of the denominator of Equation D; it is the product of the species-dependent glomerular filtration rate (GFR) and the unbound fraction in blood (fub) of the parent compound. The Clhepatic calculation is shown in the second part of the denominator of Equation D; it is the product of the species-dependent liver blood flow constant, the fub of the parent compound, and the experimentally derived intrinsic clearance (shown in Equation C) divided by the sum of these three values. All values used in Equation D are for first-order conditions of metabolism in the […]

[3] = system: human hepatocytes; parameters: method as in Crizer et al. [59]; conditions: ref Crizer et al. [59]; cited from earlier work
[4] = In vitro-in vivo extrapolation (IVIVE) to estimate Css, rat
Description: as §1, §2, §3, §4

[5] = PFHxSA 10 mg/kg/day oral 5 days
[6] = PFHxSA 30 mg/kg/day oral 5 days
[7] = PFHxSA 100 mg/kg/day oral 5 days

O=S(=O)(O)C(F)(F)C(F)(F)C(F)(F)C(F)(F)C(F)(F)C(F)(F)F [PFHxS, perfluorohexane sulfonic acid]
PFHxS Male Liver Conc. (wet weight) ([1]; PFHxSA 0.3 mg/kg/day oral 5 days): 2.31 ng/mg and 3.68 µM and 0.95 µM and 2.30 µM and 0.85 µM and 1.47 ng/mg and 0.381 ng/mg and 0.921 ng/mg and 0.340 ng/mg
PFHxS Male Liver Conc. (wet weight) ([1]; PFHxSA 1 mg/kg/day oral 5 days): 2.73 ng/mg (2×) and 2.38 ng/mg and 3.34 µM and 5.56 µM and 6.81 µM (2×) and 5.95 µM and 1.34 ng/mg and 2.23 ng/mg
PFHxS Male Liver Conc. (wet weight) ([1]; PFHxSA 3 mg/kg/day oral 5 days): 4.61 ng/mg and 5.83 ng/mg and 4.92 ng/mg and 3.19 ng/mg and 11.5 µM and 14.6 µM and 12.3 µM and 7.97 µM
PFHxS Female Liver Conc. (wet weight) [1, 5]: 0.301 ng/mg and 0.776 ng/mg and 0.700 ng/mg and 1.18 ng/mg and 1.13 ng/mg and 0.753 µM and 1.94 µM and 1.75 µM and 2.96 µM and 2.81 µM
PFHxS Male Liver Conc. (wet weight) [1, 5]: 8.96 ng/mg and 6.84 ng/mg and 9.88 ng/mg and 7.36 ng/mg and 22.4 µM and 17.1 µM and 24.7 µM and 18.4 µM
PFHxS Female Liver Conc. (wet weight) [1, 6]: 1.72 ng/mg and 2.56 ng/mg and 1.26 ng/mg and 1.35 ng/mg and 2.38 ng/mg and 4.31 µM and 6.39 µM and 3.15 µM and 3.37 µM and 5.96 µM
PFHxS Male Liver Conc. (wet weight) [1, 6]: 16.3 ng/mg and 15.3 ng/mg and 15.2 ng/mg and 24.0 ng/mg and 40.7 µM and 38.2 µM and 38.3 µM and 60.1 µM
PFHxS Female Liver Conc. (wet weight) [1, 7]: 4.16 µM and 2.21 µM and 10.2 µM and 5.79 µM and 2.07 µM and 1.66 ng/mg and 0.885 ng/mg and 4.07 ng/mg and 2.32 ng/mg and 0.826 ng/mg
PFHxS Male Liver Conc. (wet weight) [1, 7]: 67.1 ng/mg and 88.3 ng/mg and 41.9 ng/mg and 34.0 ng/mg and 44.5 ng/mg and 168 µM and 221 µM and 105 µM and 85.1 µM
PFHxS lower than PFHxSA in female liver, on average ([1]; female rats, after oral PFHxSA): 2.9 fold
concentration at 24 h ([1]; rat, PFHxSA 3 mg/kg/day oral 5 days): 3100 ng/g and 7.74 µM
concentration at 24 h ([1]; rat, PFHxSA 10 mg/kg/day oral 5 days): 7940 ng/g and 19.9 µM
concentration at 24 h ([1]; rat, PFHxSA 30 mg/kg/day oral 5 days): 14500 ng/g and 36.2 µM
Male PFHxS liver concentrations versus females at equivalent dose levels ([1]; rat, in vivo): approximately ten-fold greater
Css (steady-state concentration) ([2]; Human, IVIVE-derived, assumes 1 mg/kg/day exposure): 669 µM
CL renal ([2]; Human, non-metabolic, GFR x fub, read-out: Clrenal (renal clearance) (converted)): 0.183 mL/min
Predicted Css in humans higher than rats ([2]; cross-species IVIVE comparison): 3- to 10 fold
IVIVE-derived Css lower for PFHxS compared to PFHxSA ([2]; human): 2.25 fold
Clhep (hepatic clearance) [3]: 0 ^2 L/h
Css (steady-state concentration) ([4]; Rat, IVIVE-derived, assumes 1 mg/kg/day exposure): 243 µM
CL renal ([4]; Rat, non-metabolic, GFR x fub, read-out: Clrenal (renal clearance) (converted)): 0.00167 mL/min
PFHxS Css higher than PFHxSA Css ([4]; rat): 1.8 fold
